Assays:
[1] = tested on: vaginal epithelium; assay: Allen-Doisy test (vaginal smears in ovariectomized rats); type: in vivo; settings: single administration day 1, smears days 3-5, threshold = amount at which 50% of animals reach stage 3 (estrus)
Protocol: In the Allen-Doisy test, an evaluation of vaginal smears in ovariectomized rats is performed on days 3-5 (d3-d5) after the one-time administration on day 1 (d1 ) of the test substance. The following cycle stages are distinguished:
1=diestrus (leukocytes and nucleated epithelial cells),
2=proestrus (nucleated epithelial cells),
3=estrus (denucleated horny plaques),
4=metestrus (denucleated horny plaques, leukocytes, epithelial cells).
After oral or subcutaneous administration, estrogenically active substances result in the proliferation of the vaginal epithelium and the hornification of superficial cell layers. Regarded as a threshold value, is the amount of an estrogen at which 50% of the animals reach stage 3. Further, estrogens cause an increase of the uterus weight.

[2] = tested on: Estrogen Receptor; assay: Estrogen Receptor Test; type: binding; settings: KF not defined in the patent

Compound | Allen-Doisy Test p.o. [ED50] [1] [μg/Tier/Tag] | Allen-Doisy Test s.c. [ED50] [1] | Estrogen Receptor Test [KF] [2]
C[C@]12CC[C@@H]3c4ccc(O)cc4CC[C@H]3[C@@]13C=CC[C@]2(O)CC3 [14α,17α-(17^2 -Propeno)estra-1,3,5(10)-triene-3,17β-diol] | < 1 | 0,1-0,3 μg/Tier/Tag | 0,4
C#C[C@]1(O)CC[C@H]2[C@@H]3CCc4cc(O)ccc4[C@H]3CC[C@@]21C [Ethinylestradiol] | 3.0 | 0.1-0.3 μg/Tier/Tag | 0.5

Source: US5491137A, “14α17α-(Propano-and 17^2 propeno) -estratrienes” (Schering Aktiengesellschaft, priority 1991, dated 1996)
